Like-named read-outs stand apart in the source and are kept apart here.
Assays:
[1] = system: intestinal epithelial cells; assay: Fg of midazolam calculated from the permeation test (Expression 1 / Expression 2); assay type: in vitro ADME, human; conditions: cells of Example 4
Protocol: Fg=(the B60 substrate amount+the cell 60 substrate amount)/(the B60 substrate amount +cell 60 substrate amount+the total 60 metabolite amount) (Expression 1)
The B60 substrate amount: The mass of the substrate permeated to the B side 60 minutes after the test substance serving as a substrate was added to the A side.
The cell 60 substrate amount: The mass of the substrate accumulated in the cells 60 minutes after the test substance serving as a substrate was added to the A side.
The total 60 metabolite amount: Total amount of the metabolite accumulated on the A, on the B side, and in the cells 60 minutes after the test substance serving as a substrate was added to the A side.

[2] = system: small intestinal tissue of a living body; conditions: in vitro; cited from earlier work
[3] = Midazolam permeability of intestinal epithelial cells (apical to basolateral, cell culture insert); assay type: in vitro ADME; conditions: human; for Papp A→B at 60 min, 10 μmol/L: 10 μmol/L midazolam apical pH 6.5, basolateral pH 7.4, 37° C., read-out: Apparent permeability coefficient; for Papp at 60 min, 10 μmol/L: read-out: Apparent permeability coefficient after correction
Protocol: The midazolam permeability of the intestinal epithelial cells obtained in Comparative Examples 1 and Examples 1 to 5 was evaluated. After the end of the induction of differentiation, HBSS (pH 6.5) was added to the apical side and HBSS (pH 7.4) was added to the lower bottom (basolateral) side, and pre-incubation was carried out at 37° C. for 60 minutes. Then, HBSS (pH 6.5) containing 10 μmol/L midazolam was added to the apical side, and HBSS (pH 7.4) was added to the lower bottom (basolateral) side, and incubation was carried out at 37° C. for 60 minutes. A sample was collected from the lower bottom (basolateral) side every 15 minutes. The amount of each compound (unchanged form) was quantified using a liquid chromatography-mass spectrometer (LC-MS/MS). The apparent permeability coefficient (Papp) was calculated from the quantification result.
The apparent permeability coefficient was corrected by using the scaling factor x for the apparent permeability coefficient of Example 4 obtained in Test Example 6. At this time, the following expression was used.
The permeation amount per unit time=(the B60 substrate amount−x ×the difference in the B60 substrate amount due to the presence or absence of the addition of the metabolism inhibitor)/the permeation time

[4] = small intestine of a living body; cited from earlier work

What does the source list for `Cc1ncc2n1-c1ccc(Cl)cc1C(c1ccccc1F)=NC2` [midazolam]?
Fg simply calculated by Expression 1 ([1]; no scaling factor): 0.83; Fg after correction ([1]; scaling factor x = 1): 0.83; Fg after correction ([1]; scaling factor x = 2): 0.70; Fg after correction ([1]; scaling factor x = 4): 0.54; Fg after correction ([1]; scaling factor x = 6): 0.44; Fg after correction ([1]; scaling factor x = 8): 0.37; Fg after correction ([1]; scaling factor x = 10): 0.32; Fg after correction ([1]; scaling factor x = 12): 0.28; apparent permeability coefficient [2]: 5 ×10⁻⁶ cm/s; Papp A→B at 60 min, 10 μmol/L ([3]; cells of Comparative Example 1): 48 ×10⁻⁶ cm/s; Papp A→B at 60 min, 10 μmol/L ([3]; cells of Example 1): 30 ×10⁻⁶ cm/s; Papp A→B at 60 min, 10 μmol/L ([3]; cells of Example 2): 32 ×10⁻⁶ cm/s; Papp A→B at 60 min, 10 μmol/L ([3]; cells of Example 3): 33 ×10⁻⁶ cm/s; Papp A→B at 60 min, 10 μmol/L ([3]; cells of Example 4): 31 ×10⁻⁶ cm/s; Papp at 60 min, 10 μmol/L ([3]; cells of Example 4, scaling factor x = 2): 21.9 ×10⁻⁶ cm/s; Papp at 60 min, 10 μmol/L ([3]; cells of Example 4, scaling factor x = 3): 15.2 ×10⁻⁶ cm/s; Papp at 60 min, 10 μmol/L ([3]; cells of Example 4, scaling factor x = 4): 8.6 ×10⁻⁶ cm/s; Papp at 60 min, 10 μmol/L ([3]; cells of Example 4, scaling factor x = 5): 1.9 ×10⁻⁶ cm/s; Papp at 60 min, 10 μmol/L ([3]; cells of Example 4, scaling factor x = 5.2): 0.6 ×10⁻⁶ cm/s; Papp A→B at 60 min, 10 μmol/L ([3]; cells of Example 5): 31 ×10⁻⁶ cm/s; Fa (absorption rate in the intestinal tract) [4]: 1.0

From US20230126568A1, “PRODUCTION METHOD FOR […] AND UTILIZATION THEREOF” (FUJIFILM Corporation, priority 2020, published 2023)
